Assay results taken from PMC6691401 (Journal of Medicinal Chemistry, 2019).
Like-named read-outs stand apart in the source and are kept apart here.

Experiments:
[1] = target: T1, Mab TrmD (Mycobacteroides abscessus, UniProt B1MDI3); assay: Differential scanning fluorimetry (DSF) thermal shift; type: binding; details: 5 mM ligand
[2] = target: T1, Mab TrmD; set-up: method as in PMID 32602532; details: cited from earlier work; for ΔTm: Table 3, 5 mM ligand and 10 μM Mab TrmD; for thermal shift (ΔTm): 5 mM ligand
[3] = target: T1, Mab TrmD; details: ligand efficiency, previously reported, cited from earlier work
[4] = target: T1, Mab TrmD; assay: Isothermal titration calorimetry (ITC); type: binding; details: for LE: ligand efficiency
[5] = target: T1, Mab TrmD; assay: Native mass spectrometry of ligand binding; details: 20 μM Mab TrmD, 100 μM ligand, 5% DMSO
Protocol: Native nanoelectrospray ionization mass spectrometry spectra were recorded on a Synapt HDMS mass spectrometer (Waters, Manchester, UK) modified for studying high masses. Mab TrmD was exchanged into 200 mM ammonium acetate (pH 7.0) solution using Micro Bio-Spin 6 chromatography columns (Bio-Rad, UK). Protein samples were equilibrated at room temperature in the absence or presence of the indicated concentrations of ligands for at least 15 min before analysis. Protein solution (2.5 μL) was injected into a gold-coated borosilicate emitter (Thermo Scientific, UK) for sampling. Typical conditions were capillary voltage 1.5 kV, cone voltage 50 V, trap collision voltage 20 V, transfer collision voltage 20 V, source temperature 20 °C, backing pressure 3–4 mbar, trap pressure 3–4 × 10^–2 mbar, IM (N2) pressure 5–6 × 10^–1 mbar and TOF pressure 7–8 × 10^–7 mbar. All mass spectra were calibrated externally with caesium iodide (10 mg/mL). Data acquisition and processing were performed using MassLynx 4.1 (Waters).

[6] = target: the molecule itself; assay: native MS; nanoelectrospray, Mab TrmD exchanged into 200 mM ammonium acetate pH 7.0, room temperature, protein alone (dimer also seen with 5% DMSO and with ligands)

CCNC(=O)c1cn[nH]c1 [Compound 2, N-Ethyl-1H-pyrazole-4-carboxamide]
ΔTm [1]: < 0.5 °C

COc1ccc(-c2cc(N)[nH]n2)cc1 [Compound 16, 5-(4-methoxyphenyl)-1H-pyrazol-3-amine]
ΔTm [2]: +3.0 °C
LE ([3]; Table 3): 0.37 kcal mol^–1 per heavy atom
LE [3]: 0.37 kcal mol^–1 per heavy atom

Nc1cc(-c2ccccc2)n[nH]1 [Compound 17, 5-phenyl-1H-pyrazol-3-amine]
thermal shift (ΔTm) [2]: 1.4–1.5 °C
ΔTm [2]: +1.5 °C

Cc1ccc(-c2cc(N)[nH]n2)cc1 [Compound 18, 5-(p-tolyl)-1H-pyrazol-3-amine]
thermal shift (ΔTm) [2]: 1.4–1.5 °C
ΔTm [2]: +1.4 °C

COc1cccc(-c2cc(N)n[nH]2)c1 [Compound 19, 5-(3-Methoxyphenyl)-1H-pyrazol-3-amine]
thermal shift (ΔTm) [1]: negative thermal shift

OB(O)c1ccc2cc[nH]c2c1 [Compound 20, (1H-indol-6-yl)boronic acid]
ΔTm [2]: +4.0 °C
LE ([3]; Table 3): 0.41 kcal mol^–1 per heavy atom
LE [3]: 0.41 kcal mol^–1 per heavy atom

O=C(O)c1ccc2cc[nH]c2c1 [Compound 21, 1H-indole-6-carboxylic acid]
thermal shift (ΔTm) [2]: no ΔTm observed
ΔTm [2]: –0.6 °C

Nc1cc(-c2ccc3ccn(Cc4ccccc4)c3c2)[nH]n1 [Compound 24c, 5-(1-Benzyl-1H-indol-6-yl)-1H-pyrazol-3-amine]
GE (R^1) ([4]; Table 4, group efficiency of R^1): 0.15 kcal mol^–1 per heavy atom
LE ([4]; Table 4): 0.29 kcal mol^–1 per heavy atom
GE ([4]; group efficiency of the added group): 0.15 kcal mol^–1 per heavy atom
LE [4]: 0.29 kcal mol^–1 per heavy atom
binding to Mab TrmD dimer observed by native MS [5]: entirely doubly bound

N#Cc1c(N)n[nH]c1-c1ccc2ccn(Cc3ccc(CN4CCCC4)cc3)c2c1 [Compound 29a, 3-Amino-5-(1-(4-(pyrrolidin-1-ylmethyl)benzyl)-1H-indol-6-yl)-1H-pyrazole-4-carbonitrile]
binding to Mab TrmD dimer observed by native MS [5]: low gas-phase stabilities
LE ([3]; Table 6): 0.34 kcal mol^–1 per heavy atom
LE [3]: 0.34 kcal mol^–1 per heavy atom

Nc1cc(-c2ccc3ccn(Cc4ccc(CN5CCCC5)cc4)c3c2)[nH]n1 [Compound 31a, 5-(1-(4-(Pyrrolidin-1-ylmethyl)benzyl)-1H-indol-6-yl)-1H-pyrazol-3-amine]
GE (CH2R^1) ([4]; Table 6, group efficiency of CH2R^1): 0.36 kcal mol^–1 per heavy atom
LE ([3]; Table 6): 0.31 kcal mol^–1 per heavy atom

B1: Mycobacterium abscessus tRNA (m1G37) methyltransferase (TrmD) (enzyme, UniProt B1MDI3 1-242, looked up)
chain: MKIDVVTIFPEYLQPVRQSLPGKAIDAGLVDVAVHDLRRWTHDVHKSVDDSPYGGGPGMVMKPTVWGDALDEICTSETLLVVPTPAGYPFTQETAWQWSTEDHLVIACGRYEGIDQRVADDAATRMRVREVSIGDYVLNGGEAAALVIIEAVLRLVPGVLGNALSAQEDSHSEGMASLLEGPSYTRPPSWRGMDVPPVLLSGDHAKIAAWRAEQSRQRTIERRPDLLGFDSPTGEHGGDGLS
stoichiometry N [6]: 2
